In patent US9334246B2, “Substituted triazines for malaria treatment and chemoprophylaxis” (The United States of America, as represented by the …, priority 2013, dated 2016):

What was measured:
P. falciparum D6 = test: Malaria SYBR Green Fluorescence Assay, D6 strain; type: cell-based, Plasmodium falciparum; settings: for D6: SYBR Green Assay
P. berghei = test: Thompson Test, in vivo mouse malaria assay; set-up: species or system mice (ICR strain)
[1] = biological target: hERG potassium ion channel (Homo sapiens, UniProt Q12809); test: hERG patch clamp assay (% inhibition at 10 μM); settings: for hERG (% inhibition): 10 μM
Chain of hERG potassium ion channel (Q12809 whole entry): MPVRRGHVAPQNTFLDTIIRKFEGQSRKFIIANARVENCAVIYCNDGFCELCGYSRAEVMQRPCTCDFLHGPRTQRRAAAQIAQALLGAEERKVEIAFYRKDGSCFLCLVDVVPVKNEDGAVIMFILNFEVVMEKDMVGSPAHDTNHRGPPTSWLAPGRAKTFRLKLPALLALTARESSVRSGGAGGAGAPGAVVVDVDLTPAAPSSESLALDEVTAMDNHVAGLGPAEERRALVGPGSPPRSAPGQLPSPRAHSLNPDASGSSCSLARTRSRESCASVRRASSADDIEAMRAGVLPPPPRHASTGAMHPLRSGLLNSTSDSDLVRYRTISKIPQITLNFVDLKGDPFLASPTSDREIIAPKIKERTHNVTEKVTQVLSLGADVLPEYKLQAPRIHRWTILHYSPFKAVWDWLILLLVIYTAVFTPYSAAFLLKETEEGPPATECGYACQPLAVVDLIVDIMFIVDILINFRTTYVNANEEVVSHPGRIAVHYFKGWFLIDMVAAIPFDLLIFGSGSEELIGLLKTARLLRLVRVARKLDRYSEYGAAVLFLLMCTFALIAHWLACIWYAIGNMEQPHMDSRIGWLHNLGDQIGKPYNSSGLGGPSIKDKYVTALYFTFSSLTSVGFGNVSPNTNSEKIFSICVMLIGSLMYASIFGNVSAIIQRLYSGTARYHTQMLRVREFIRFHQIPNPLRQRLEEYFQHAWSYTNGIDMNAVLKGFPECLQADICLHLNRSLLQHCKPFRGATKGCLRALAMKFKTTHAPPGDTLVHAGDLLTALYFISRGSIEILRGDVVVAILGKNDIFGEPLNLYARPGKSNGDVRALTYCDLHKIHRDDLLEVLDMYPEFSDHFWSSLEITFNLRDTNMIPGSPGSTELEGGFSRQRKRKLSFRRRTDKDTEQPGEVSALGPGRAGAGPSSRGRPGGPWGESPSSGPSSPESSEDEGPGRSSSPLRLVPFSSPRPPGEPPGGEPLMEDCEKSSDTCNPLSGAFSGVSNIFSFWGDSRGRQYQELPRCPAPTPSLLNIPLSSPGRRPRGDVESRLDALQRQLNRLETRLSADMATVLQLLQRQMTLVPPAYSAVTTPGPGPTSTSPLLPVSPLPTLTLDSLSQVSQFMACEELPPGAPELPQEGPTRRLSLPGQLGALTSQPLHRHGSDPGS

P. falciparum C235 = test: Malaria SYBR Green Fluorescence Assay, C235 strain; type: cell-based, Plasmodium falciparum; settings: for C235: SYBR Green Assay
P. falciparum W2 = test: Malaria SYBR Green Fluorescence Assay, W2 strain; type: cell-based, Plasmodium falciparum; settings: for W2: SYBR Green Assay
[2] = % inhibition at 10 μM, patch clamp
[3] = (160 × 3): 160 mg/kg for 3 days

Row | Compound | D6 (P. falciparum D6) [ng/mL] | In vivo Results Thompson Assay (n/N Cures or Suppressive) (P. berghei; (80 × 3): 80 mg/kg for 3 days) | hERG ([1]; hERG activity as % inhibition) [%] | C235 (P. falciparum C235) [ng/mL] | W2 (P. falciparum W2) [ng/mL] | D6 (SYBR Green Assay IC50) (P. falciparum D6) [ng/mL] | hERG (% inhibition) [1] [%] | C235 (SYBR Green Assay IC50) (P. falciparum C235) [ng/mL] | W2 (SYBR Green Assay IC50) (P. falciparum W2) [ng/mL] | hERG [1, 2] [%] | In vivo Results Thompson Assay (n/N Cures or Suppressive) (P. berghei; (40 × 3): 40 mg/kg for 3 days) | In vivo Results Thompson Assay (n/N Cures or Suppressive) (P. berghei; [3])
1 | COC1═CC═CC(═C1)C1═NC(NCC2(N)CCCCC2)═NC(═N1)C(Cl)(Cl)Cl [Compound 661] | 3 | (80 × 3) Suppressive | 32 | 8 | 2 | – | – | – | – | – | – | –
2 | CCN1CCCC(C1)Nc2nc(Nc3cc(Cl)cc(Cl)c3)nc(n2)C(Cl)(Cl)Cl [Compound 638] | – | (80 × 3) Suppressive | – | – | – | 5 | 49 | 5 | 5 | – | – | –
3 | ClC(Cl)(Cl)c1nc(-c2ccc3ccccc3c2)nc(N2CCCNCC2)n1 [Compound 227] | 29 | (80 × 3) 2/5 Cures | – | 12 | 10 | – | – | – | – | 18 | – | –
4 | FC(F)(F)c1cccc(-c2nc(N3CCCNCC3)nc(C(Cl)(Cl)Cl)n2)c1 [Compound 108] | 70 | (80 × 3) Suppressive | – | 82 | 47 | – | – | – | – | 28 | – | –
5 | ClC(Cl)(Cl)c1nc(NCCCN2CCCC2)nc(Nc3ccc(cc3)n4cccn4)n1 [Compound 728] | 77 | (80 × 3) Suppressive | 116 | 79 | 27 | – | – | – | – | – | – | –
6 | CC(C)(N)CNc1nc(-c2cc(Cl)cc(Cl)c2)nc(C(Cl)(Cl)Cl)n1 [Compound 195] | 6 | 5/5 | – | 3 | 6 | – | – | – | – | 3 | 2/5 | Cures; (160 × 3) 5/5 Cures
7 | FC(F)(F)OC1═CC═C(NC2═NC(═NC(═N2)N2CCCNCC2)C(Cl)(Cl)Cl)C═C1 [Compound 659] | 19 | (80 × 3) 4/5 Cures | 58 | 38 | 18 | – | – | – | – | – | – | –
8 | ClC(Cl)(Cl)c1ccc(-c2nc(NCCN3CCCC3)nc(C(Cl)(Cl)Cl)n2)cc1 [Compound 57] | 10 | Suppressive | – | 22 | 6 | – | – | – | – | 25 | – | 5/5
9 | ClC(Cl)(Cl)c1nc(Nc2ccncc2)nc(-c2ccc3ccccc3c2)n1 [Compound 235] | 14 | (80 × 3) Suppressive | – | 10 | 8 | – | – | – | – | – | – | –
10 | CCN1CCCC(Nc2nc(-c3ccc(C)cc3)nc(C(Cl)(Cl)Cl)n2)C1 (centres unmarked) [Cmpd 80] | 135 | – | – | 129 | 90 | – | – | – | – | 97 | – | –
11 | Fc1ccc(-c2nc(NCCCN3CCCC3)nc(C(Cl)(Cl)Cl)n2)cc1 [Cmpd 381] | – | – | – | – | – | 5 | 106 | 14 | 9 | – | – | –
12 | CCN(CC)CC(C)Nc1nc(Nc2ccc(Cl)c(Cl)c2)nc(n1)C(Cl)(Cl)Cl [Compound 642] | – | – | – | – | – | 5 | 76 | 13 | 3 | – | – | –
13 | NC1(CNC2═NC(═NC(═N2)C2═CC═C(C═C2)C(Cl)(Cl)Cl)C(Cl)(Cl)Cl)CCCCC1 [Compound 666] | 3 | (80 × 3) 2/4 Cures | – | 5 | 2 | – | – | – | – | – | – | –
14 | CN(C)CCCNc1nc(Nc2ccc(Cl)c(Cl)c2)nc(n1)C(Cl)(Cl)Cl [Compound 637] | – | – | – | – | – | 17 | 103 | 20 | 13 | – | – | –
15 | CCC(N)(CC)CNc1nc(-c2ccc3ccccc3c2)nc(C(Cl)(Cl)Cl)n1 [Cmpd 377] | – | – | – | – | – | 2 | 25 | 8 | 6 | – | – | –
16 | CC(C)CN1CCC(Nc2nc(-c3ccc(C(C)(C)C)cc3)nc(C(Cl)(Cl)Cl)n2)CC1 [Compound 694, CC(C)CN1CCC(CC1)NC1═NC(═NC(═N1)C(Cl)(Cl)Cl)C1═CC═C(C═C1)C(C)(C)C] | 24 | (80 × 3) Suppressive | – | 37 | 23 | – | – | – | – | – | – | –
17 | Clc1cc(Cl)cc(-c2nc(NCCN3CCCC3)nc(C(Cl)(Cl)Cl)n2)c1 [Cmpd 202] | 7 | – | – | 7 | 10 | – | – | – | – | 51 | – | –
18 | CN1CCC(Nc2nc(-c3ccc(S(C)(=O)=O)cc3)nc(C(Cl)(Cl)Cl)n2)CC1 [Cmpd 77] | 92 | – | – | 131 | 53 | – | – | – | – | 72 | – | –
19 | CC(CN(C)C)Nc1nc(Nc2ccc(Cl)c(Cl)c2)nc(n1)C(Cl)(Cl)Cl [Compound 640] | – | – | – | – | – | 8 | 23 | 10 | 8 | – | – | –

Row | Compound | D6 (P. falciparum D6) [ng/mL] | In vivo Results Thompson Assay (n/N Cures or Suppressive) (P. berghei; (80 × 3): 80 mg/kg for 3 days) | hERG ([1]; hERG activity as % inhibition) [%] | C235 (P. falciparum C235) [ng/mL] | W2 (P. falciparum W2) [ng/mL] | D6 (SYBR Green Assay IC50) (P. falciparum D6) [ng/mL] | hERG (% inhibition) [1] [%] | C235 (SYBR Green Assay IC50) (P. falciparum C235) [ng/mL] | W2 (SYBR Green Assay IC50) (P. falciparum W2) [ng/mL] | hERG [1, 2] [%] | In vivo Results Thompson Assay (n/N Cures or Suppressive) (P. berghei; (40 × 3): 40 mg/kg for 3 days) | In vivo Results Thompson Assay (n/N Cures or Suppressive) (P. berghei; [3])
20 | CC(CN(C)C)Nc1nc(Nc2cc(Cl)cc(Cl)c2)nc(n1)C(Cl)(Cl)Cl [Compound 639] | – | – | – | – | – | 13 | 25 | 9 | 7 | – | – | –
21 | COc1ccc(-c2nc(NCc3ccncc3)nc(C(Cl)(Cl)Cl)n2)cc1 [Cmpd 130] | 12 | – | – | 24 | 5 | – | – | – | – | 20 | – | –
22 | tert-butyl 5-(4-(4-chlorophenyl)-6-(trichloromethyl)-1,3,5-triazin-2-yl)-2,5-diazabicyclo[2.2.1]heptane-2-carboxylate [Example 6] | 33 | – | – | 44 | 26 | – | – | – | – | 96 | – | –
23 | COc1ccc(cc1)c2nc(nc(n2)C(Cl)(Cl)Cl)N3CC4CC3CN4 [Compound 718] | 278.6 | – | 23.5 | 139.2 | 77.35 | – | – | – | – | – | – | –
24 | CC1(C)CC(Nc2nc(-c3ccccc3)nc(C(Cl)(Cl)Cl)n2)CC(C)(C)N1 [Compound 320] | 11 | 4/4 | – | 20 | 2 | – | – | – | – | – | 1/5 | –
25 | 3-(4-((3-(dimethylamino)propyl)amino)-6-(trichloromethyl)-1,3,5-triazin-2-yl)benzoic acid [Example 11] | 588 | – | 15 | 592 | 475 | – | – | – | – | – | – | –
26 | Clc1ccc(-c2nc(NCCc3ccccn3)nc(C(Cl)(Cl)Cl)n2)cc1 [Cmpd 140] | 106 | – | – | 136 | 32 | – | – | – | – | 11 | – | –
27 | CN1CCN(c2nc(-c3ccc(-c4ccccc4)cc3)nc(C(Cl)(Cl)Cl)n2)CC1 [Cmpd 298] | 62 | – | – | 87 | 33 | – | – | – | – | 10 | – | –
28 | CN1CCCN(c2nc(-c3cc(Cl)cc(Cl)c3)nc(C(Cl)(Cl)Cl)n2)CC1 [Cmpd 205] | 23 | – | – | 26 | 7 | – | – | – | – | 20 | – | –
29 | NC1(CNc2nc(-c3ccccc3)nc(C(Cl)(Cl)Cl)n2)CCOCC1 [Compound 313] | 7 | (80 × 3) 1/5 Cures | – | 14 | 2 | – | – | – | – | – | – | –
30 | COc1ccccc1-c1nc(NCC(C)(C)N)nc(C(Cl)(Cl)Cl)n1 [Cmpd 217] | 43 | – | – | 20 | 20 | – | – | – | – | 62 | – | –
31 | CSc1ccc(-c2nc(NCCC3CCCN3C)nc(C(Cl)(Cl)Cl)n2)cc1 (centres unmarked) [Cmpd 45] | 43 | – | – | 74 | 91 | – | – | – | – | 38 | – | –
32 | CCN1CCCC(Nc2nc(-c3ccc(F)cc3)nc(C(Cl)(Cl)Cl)n2)C1 (centres unmarked) [Cmpd 387] | – | – | – | – | – | 4 | 108 | 13 | 7 | – | – | –
33 | CC(C)(C)c1ccc(-c2nc(NCCCN3CCCC3)nc(C(Cl)(Cl)Cl)n2)cc1 [Cmpd 34] | 152 | – | – | 152 | 141 | – | – | – | – | 80.9 | – | –
34 | ClC(Cl)(Cl)c1nc(NCCN2CCCC2)nc(-c2ccc(-c3ccccc3)cc2)n1 [Cmpd 196] | 31 | – | – | 30 | 25 | – | – | – | – | 53 | – | –
35 | ClC(Cl)(Cl)c1ccc(-c2nc(NCCc3ccccn3)nc(C(Cl)(Cl)Cl)n2)cc1 [Cmpd 163] | 50 | – | – | 61 | 20 | – | – | – | – | 5 | – | –
36 | CCC(N)(CC)CNc1nc(-c2ccc(-c3ccccc3)cc2)nc(C(Cl)(Cl)Cl)n1 [Cmpd 364] | – | – | – | – | – | 3 | 25 | 6 | 4 | – | – | –
37 | COc1ncccc1Nc1nc(NC2CC(C)(C)NC(C)(C)C2)nc(C(Cl)(Cl)Cl)n1 [Cmpd 348] | 11 | – | – | 18 | 9 | – | – | – | – | 96 | – | –
38 | CCN(CC)CCNc1nc(Cc2ccc(OC)cc2)nc(C(Cl)(Cl)Cl)n1 [Cmpd 59] | 290 | – | – | 288 | 153 | – | – | – | – | 100 | – | –
